Results reported in US6914045B2, “Glycopeptide antibiotics” (Wyeth Holdings Corporation, priority 2001, dated 2005).
Converted amounts (≈) assume the structure as drawn.

Experiments:
[1] = anatomic pathology (histopathology of heart and kidney) in mice; assay type: in vivo; conditions: CD-1 mice, 20 mg/kg intravenously daily for 9 days, necropsy day 10, microscopic histopathology
Experimental: Samples of tissues from necropsied mice were formalin-fixed, paraffin-embedded, sectioned, stained with hematoxylin and eosin, and examined microscopically. Histopathologic findings were recorded. These findings were subjectively graded on a scale corresponding to slight, mild, moderate, marked and severe as compared to untreated controls.

[2] = system: Staphylococcus aureus-SMITH (GC 4543); test: acute lethal infection in mice; assay type: in vivo; conditions: acute lethal infection, female CD-1 mice, intraperitoneal challenge, intravenous 30 min. after infection, 7 day survival
Outline: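 Survival at 7 days, pooled from three independent tests, yields ED50 values. Treatment is intravenous, 30 min after ip infection of female CD-1 mice, using an inoculum lethal to untreated controls within 24-48 hr.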

[3] = system: Escherichia coli; test: in vitro antibacterial evaluation, MIC by broth dilution; assay type: cell-based; conditions: 18 hours at 35° C.
Outline: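 Broth dilution MIC per NCCLS M7-A2 in Mueller-Hinton II medium, inoculum 5×10^5 CFU/mL, antibiotic range 64-0.06 μg/mL. MIC taken as lowest concentration inhibiting growth.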

[4] = system: Streptococcus sp.; test: as above; assay type: cell-based; conditions: broth dilution, 18 hours at 35° C.
Outline: (§1)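 MIC = lowest antibiotic concentration preventing visible growth; inoculum 5×10^5 CFU/mL; drug range 64-0.06 μg/mL; Muller-Hinton II […]; NCCLS M7-A2 guidance.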

[5] = system: Enterococcus sp.; test: as above; assay type: cell-based; conditions: broth dilution, 18 hours at 35° C.
Outline: as §1

[6] = system: Staphylococcus sp.; test: as above; assay type: cell-based; conditions: broth dilution, 18 hours at 35° C.
Outline: as §1

CC(c1ccccc1)C1NC(=O)CNC(=O)C(CO)NC(=O)C(C(O)C2CN(Cc3ccc(C(C)(C)C)cc3)C(=N)N2C2OC(CO)C(O)C(O)C2O)NC(=O)C(C(O)C2CNC(=N)N2)NC(=O)C(Cc2ccc(OC3OC(CO)C(OC4OC5COC6(OC5C(O)C4O)C4CC5CC(C4)CC6C5)C(O)C3O)cc2)NC1=O (centres unmarked) [Example 77]
Anatomical Pathology (Day 10), Heart [1]: 0
Anatomical Pathology (Day 10), Kidney [1]: 0
median effective dose (ED50), Staphylococcus aureus-SMITH (GC 4543) [2]: 4 mg/kg
MIC Escherichia coli (ATCC 25922) [3]: >128 mg/L
MIC Escherichia coli (GC 4559) [3]: >128 mg/L
MIC Escherichia coli (GC 4560) [3]: 4 mg/L (≈ 2.54 µM)
MIC Streptococcus agalactiae (GC 4564) [4]: 1 mg/L (≈ 0.635 µM)
MIC Streptococcus pneumoniae (ATCC 6301) [4]: 2 mg/L (≈ 1.27 µM)
MIC Streptococcus pneumoniae (GC 1894) [4]: 0.25 to 0.5 mg/L
MIC Streptococcus pneumoniae (GC 4565) [4]: 2 to 4 mg/L
MIC Streptococcus pyogenes (GC 4563) [4]: 1 mg/L (≈ 0.635 µM)
MIC Streptococcus pneumoniae (ATCC 6301) ([4]; strain ATCC 6301): 2 mg/L (≈ 1.27 µM)
MIC Streptococcus pyogenes (GC 4563) ([4]; strain GC 4563): 1 mg/L (≈ 0.635 µM)
MIC Streptococcus agalactiae (GC 4564) ([4]; strain GC 4564): 1 mg/L (≈ 0.635 µM)
MIC Streptococcus pneumoniae (GC 4565) ([4]; strain GC 4565): 2 to 4 mg/L
MIC Enterococcus avium (GC 4558) ([5]; Enterococcus avium (GC 4558)): 4 mg/L (≈ 2.54 µM)
MIC Enterococcus faecalis (ATCC 29212) ([5]; Enterococcus faecalis (ATCC 29212)): 16 mg/L (≈ 10.2 µM)
MIC Enterococcus faecalis (GC 4552) ([5]; Enterococcus faecalis (GC 4552)): 16 mg/L (≈ 10.2 µM)
MIC Enterococcus faecalis (GC 4553) ([5]; Enterococcus faecalis (GC 4553)): 8 mg/L (≈ 5.08 µM)
MIC Enterococcus faecalis (GC 6189) ([5]; Enterococcus faecalis (GC 6189)): 16 mg/L (≈ 10.2 µM)
MIC Enterococcus faecium (GC 2243) ([5]; Enterococcus faecium (GC 2243)): 8 mg/L (≈ 5.08 µM)
MIC Enterococcus faecium (GC 4556) ([5]; Enterococcus faecium (GC 4556)): 16 mg/L (≈ 10.2 µM)
MIC Enterococcus faecium (GC 4557) ([5]; Enterococcus faecium (GC 4557)): 1 to 2 mg/L
MIC Enterococcus avium (GC 4558) [5]: 4 mg/L (≈ 2.54 µM)
MIC Enterococcus faecalis (ATCC 29212) [5]: 16 mg/L (≈ 10.2 µM)
MIC Enterococcus faecalis (GC 2242) [5]: 16 mg/L (≈ 10.2 µM)
MIC Enterococcus faecalis (GC 2691) [5]: 16 mg/L (≈ 10.2 µM)
MIC Enterococcus faecalis (GC 3059) [5]: 16 mg/L (≈ 10.2 µM)
MIC Enterococcus faecalis (GC 4552) [5]: 16 mg/L (≈ 10.2 µM)
MIC Enterococcus faecalis (GC 4553) [5]: 8 mg/L (≈ 5.08 µM)
MIC Enterococcus faecalis (GC 4554) [5]: 16 to 32 mg/L
MIC Enterococcus faecalis (GC 6189) [5]: 16 mg/L (≈ 10.2 µM)
MIC Enterococcus faecium (GC 2243) [5]: 8 mg/L (≈ 5.08 µM)
MIC Enterococcus faecium (GC 4556) [5]: 16 mg/L (≈ 10.2 µM)
MIC Enterococcus faecium (GC 4557) [5]: 1 to 2 mg/L
MIC Enterococcus faecalis (GC 2242) ([5]; strain GC 2242): 16 mg/L (≈ 10.2 µM)
MIC Enterococcus faecalis (GC 2691) ([5]; strain GC 2691): 16 mg/L (≈ 10.2 µM)
MIC Enterococcus faecalis (GC 3059) ([5]; strain GC 3059): 16 mg/L (≈ 10.2 µM)
MIC Staphylococcus aureus (GC 1131) ([6]; strain GC 1131): 16 mg/L (≈ 10.2 µM)
MIC Staphylococcus aureus (GC 3053) ([6]; strain GC 3053): 16 mg/L (≈ 10.2 µM)
MIC Staphylococcus aureus (GC 4541) ([6]; strain GC 4541): 4 to 8 mg/L
MIC Staphylococcus aureus-SMITH (GC 4543) ([6]; strain GC 4543): 8 mg/L (≈ 5.08 µM)
MIC Staphylococcus aureus (GC 4544) ([6]; strain GC 4544): 16 mg/L (≈ 10.2 µM)
MIC Staphylococcus aureus (GC 4545) ([6]; strain GC 4545): 8 mg/L (≈ 5.08 µM)
MIC Staphylococcus haemolyticus (GC 4546) ([6]; strain GC 4546): 4 to 8 mg/L
MIC Coagulase Negative Staphylococcus (GC 4547) ([6]; strain GC 4547): 4 mg/L (≈ 2.54 µM)
MIC Coagulase Negative Staphylococcus (GC 4548) ([6]; strain GC 4548): 4 mg/L (≈ 2.54 µM)
MIC Coagulase Negative Staphylococcus (GC 4549) ([6]; strain GC 4549): 4 to 8 mg/L
MIC Coagulase Negative Staphylococcus (GC 4551) ([6]; strain GC 4551): 8 mg/L (≈ 5.08 µM)
MIC Coagulase Negative Staphylococcus (GC 6257) ([6]; strain GC 6257): 2 mg/L (≈ 1.27 µM)
